In ChEMBL document CHEMBL3991601, “The target landscape of clinical kinase drugs” (Science, 2017):
Active and inactive are the calls of the source. For most assays here, no stated cut-off is given here; in the data, actives have a measured Kd and inactives only a lower limit.

How the values were obtained:
Activin receptor type-1B = target: T1, Activin receptor type-1B (Homo sapiens, UniProt P36896)
T1 sequence (P36896 whole entry): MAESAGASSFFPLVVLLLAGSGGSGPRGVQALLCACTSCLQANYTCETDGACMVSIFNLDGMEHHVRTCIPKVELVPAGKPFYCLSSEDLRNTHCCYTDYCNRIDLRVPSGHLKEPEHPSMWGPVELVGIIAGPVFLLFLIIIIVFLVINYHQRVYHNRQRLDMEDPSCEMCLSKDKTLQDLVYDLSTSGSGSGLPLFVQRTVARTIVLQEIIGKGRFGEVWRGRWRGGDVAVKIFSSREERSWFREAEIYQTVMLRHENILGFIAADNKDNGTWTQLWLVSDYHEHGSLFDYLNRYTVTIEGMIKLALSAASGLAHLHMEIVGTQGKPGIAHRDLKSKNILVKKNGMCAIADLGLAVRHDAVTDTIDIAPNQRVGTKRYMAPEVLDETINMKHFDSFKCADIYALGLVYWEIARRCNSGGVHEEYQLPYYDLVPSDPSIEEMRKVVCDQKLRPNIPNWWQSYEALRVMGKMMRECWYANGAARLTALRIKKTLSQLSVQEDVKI

[1] = target: Casein kinase I isoform epsilon (Homo sapiens, UniProt P49674)
[2] = target: T2, Serine/threonine-protein kinase Nek3 (Homo sapiens, UniProt P51956)
T2 sequence (P51956 whole entry): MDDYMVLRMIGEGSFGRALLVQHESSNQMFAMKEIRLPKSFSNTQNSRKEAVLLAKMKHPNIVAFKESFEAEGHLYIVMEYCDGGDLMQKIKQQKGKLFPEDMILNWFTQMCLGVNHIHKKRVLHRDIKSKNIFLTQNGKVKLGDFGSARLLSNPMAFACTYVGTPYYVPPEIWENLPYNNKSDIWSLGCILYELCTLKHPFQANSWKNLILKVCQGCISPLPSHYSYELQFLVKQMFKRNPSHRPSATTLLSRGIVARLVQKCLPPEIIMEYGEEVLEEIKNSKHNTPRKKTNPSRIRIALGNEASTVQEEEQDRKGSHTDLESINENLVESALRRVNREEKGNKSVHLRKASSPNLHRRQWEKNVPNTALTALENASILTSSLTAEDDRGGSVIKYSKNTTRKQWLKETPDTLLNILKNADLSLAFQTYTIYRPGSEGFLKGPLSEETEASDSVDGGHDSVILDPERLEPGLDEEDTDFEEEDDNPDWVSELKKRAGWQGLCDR

[3] = target: Protein-tyrosine kinase 2-beta (Homo sapiens, UniProt Q14289)
[4] = target: Ribosomal protein S6 kinase alpha-5 (Homo sapiens, UniProt O75582)
[5] = target: T3, Exosome RNA helicase MTR4 (Homo sapiens, UniProt P42285)
T3 sequence (P42285 whole entry): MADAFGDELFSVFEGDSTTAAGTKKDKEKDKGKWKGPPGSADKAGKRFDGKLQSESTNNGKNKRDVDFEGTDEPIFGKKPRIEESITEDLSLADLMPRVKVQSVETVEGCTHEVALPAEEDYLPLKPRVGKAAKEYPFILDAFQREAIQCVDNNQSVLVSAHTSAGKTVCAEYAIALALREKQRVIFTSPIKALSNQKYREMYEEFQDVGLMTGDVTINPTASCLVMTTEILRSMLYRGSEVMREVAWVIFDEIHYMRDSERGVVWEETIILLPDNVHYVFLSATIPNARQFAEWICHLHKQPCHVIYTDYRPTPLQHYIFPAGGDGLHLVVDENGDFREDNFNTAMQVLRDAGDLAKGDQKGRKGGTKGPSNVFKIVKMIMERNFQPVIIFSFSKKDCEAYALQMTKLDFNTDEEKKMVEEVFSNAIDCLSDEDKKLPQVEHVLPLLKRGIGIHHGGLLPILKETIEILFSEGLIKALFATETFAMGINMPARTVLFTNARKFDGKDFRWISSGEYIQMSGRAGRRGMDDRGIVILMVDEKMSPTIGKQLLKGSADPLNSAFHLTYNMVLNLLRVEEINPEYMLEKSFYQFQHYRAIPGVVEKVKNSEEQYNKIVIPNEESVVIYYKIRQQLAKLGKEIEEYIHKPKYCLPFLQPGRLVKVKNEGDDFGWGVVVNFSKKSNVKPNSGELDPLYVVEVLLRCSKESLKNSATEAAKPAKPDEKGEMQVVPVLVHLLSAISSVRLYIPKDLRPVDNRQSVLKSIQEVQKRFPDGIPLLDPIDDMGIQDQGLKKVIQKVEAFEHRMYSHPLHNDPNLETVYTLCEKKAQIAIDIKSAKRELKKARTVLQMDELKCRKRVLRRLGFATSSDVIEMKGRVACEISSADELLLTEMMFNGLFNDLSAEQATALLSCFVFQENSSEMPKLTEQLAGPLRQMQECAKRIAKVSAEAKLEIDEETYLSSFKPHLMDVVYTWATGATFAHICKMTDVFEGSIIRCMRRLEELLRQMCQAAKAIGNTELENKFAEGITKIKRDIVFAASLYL

Protein-tyrosine kinase 2-beta, sequence (Q14289 whole entry): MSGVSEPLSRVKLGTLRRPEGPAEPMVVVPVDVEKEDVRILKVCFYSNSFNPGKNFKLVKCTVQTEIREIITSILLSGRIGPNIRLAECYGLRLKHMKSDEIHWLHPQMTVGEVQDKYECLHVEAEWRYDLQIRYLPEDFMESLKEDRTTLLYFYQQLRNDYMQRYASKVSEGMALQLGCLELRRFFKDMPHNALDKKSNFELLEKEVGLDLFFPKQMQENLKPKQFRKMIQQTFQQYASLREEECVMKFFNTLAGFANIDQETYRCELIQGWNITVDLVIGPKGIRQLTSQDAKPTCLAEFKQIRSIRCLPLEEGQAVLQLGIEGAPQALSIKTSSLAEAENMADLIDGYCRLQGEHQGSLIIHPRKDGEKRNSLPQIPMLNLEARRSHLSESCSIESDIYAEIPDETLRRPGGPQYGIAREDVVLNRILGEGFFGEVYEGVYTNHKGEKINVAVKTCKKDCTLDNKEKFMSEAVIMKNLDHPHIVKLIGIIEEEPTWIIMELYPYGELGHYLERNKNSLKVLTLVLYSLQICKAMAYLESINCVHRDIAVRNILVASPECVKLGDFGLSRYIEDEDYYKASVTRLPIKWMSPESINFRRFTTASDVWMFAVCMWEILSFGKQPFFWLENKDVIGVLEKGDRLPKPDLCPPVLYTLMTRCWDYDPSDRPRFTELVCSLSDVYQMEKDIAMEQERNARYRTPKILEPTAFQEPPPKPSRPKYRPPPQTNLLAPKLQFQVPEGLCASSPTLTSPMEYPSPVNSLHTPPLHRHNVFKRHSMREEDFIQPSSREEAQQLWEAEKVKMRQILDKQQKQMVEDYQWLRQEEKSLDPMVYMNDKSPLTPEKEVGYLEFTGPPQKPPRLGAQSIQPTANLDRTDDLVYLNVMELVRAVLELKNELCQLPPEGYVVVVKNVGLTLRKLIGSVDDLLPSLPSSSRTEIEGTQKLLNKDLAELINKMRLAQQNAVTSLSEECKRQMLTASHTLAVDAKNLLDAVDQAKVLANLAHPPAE
Ribosomal protein S6 kinase alpha-5, sequence (O75582 whole entry): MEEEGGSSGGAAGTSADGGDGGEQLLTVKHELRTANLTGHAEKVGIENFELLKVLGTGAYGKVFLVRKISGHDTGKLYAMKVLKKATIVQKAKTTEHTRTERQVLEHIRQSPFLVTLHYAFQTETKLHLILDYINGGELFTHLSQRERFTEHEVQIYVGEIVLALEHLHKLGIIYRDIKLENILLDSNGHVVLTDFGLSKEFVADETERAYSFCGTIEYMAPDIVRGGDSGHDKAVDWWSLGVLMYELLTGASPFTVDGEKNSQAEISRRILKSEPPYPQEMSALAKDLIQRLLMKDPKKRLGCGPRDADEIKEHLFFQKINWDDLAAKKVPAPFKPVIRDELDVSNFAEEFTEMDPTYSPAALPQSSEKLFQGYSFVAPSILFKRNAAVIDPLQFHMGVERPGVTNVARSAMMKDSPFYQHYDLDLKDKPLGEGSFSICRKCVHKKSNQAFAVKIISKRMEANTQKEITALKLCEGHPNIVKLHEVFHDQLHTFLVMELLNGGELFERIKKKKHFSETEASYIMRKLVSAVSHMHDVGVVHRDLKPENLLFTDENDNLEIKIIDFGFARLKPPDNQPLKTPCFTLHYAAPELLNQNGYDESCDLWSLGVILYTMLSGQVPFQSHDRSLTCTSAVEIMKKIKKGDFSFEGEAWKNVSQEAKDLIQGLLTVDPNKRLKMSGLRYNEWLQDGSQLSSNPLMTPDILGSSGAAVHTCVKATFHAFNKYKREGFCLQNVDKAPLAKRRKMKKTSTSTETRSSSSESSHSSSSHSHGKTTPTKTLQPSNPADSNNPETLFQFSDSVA
Casein kinase I isoform epsilon, sequence (P49674 whole entry, canonical isoform): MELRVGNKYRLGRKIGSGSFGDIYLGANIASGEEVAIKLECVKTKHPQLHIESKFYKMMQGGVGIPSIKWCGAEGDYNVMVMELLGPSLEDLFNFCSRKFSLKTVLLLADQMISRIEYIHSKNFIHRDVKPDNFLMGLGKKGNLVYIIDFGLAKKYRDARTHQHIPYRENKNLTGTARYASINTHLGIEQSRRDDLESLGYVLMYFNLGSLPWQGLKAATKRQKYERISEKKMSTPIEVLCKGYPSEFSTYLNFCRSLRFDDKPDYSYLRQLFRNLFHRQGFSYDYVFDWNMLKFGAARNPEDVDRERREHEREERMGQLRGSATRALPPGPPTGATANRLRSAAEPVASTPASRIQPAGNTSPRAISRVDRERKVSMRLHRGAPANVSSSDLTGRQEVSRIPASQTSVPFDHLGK

Compound	Kd (Activin receptor type-1B)	Kd [1]	Kd [2]	Kd [3]	Kd [4]	Kd [5]
Cc1ccc(C(=O)Nc2ccc(Oc3cc4cnn(C)c4cc3-c3cn[nH]c3)c(F)c2)c(=O)n1-c1ccc(F)cc1 [MERESTINIB]	> 30 µM (inactive)	> 30 µM (inactive)	> 30 µM (inactive)	> 30 µM (inactive)	> 30 µM (inactive)	> 30 µM (inactive)
CC(C)(O)CC(=O)NCCn1ccc2ncnc(Nc3ccc(Oc4cccc(C(F)(F)F)c4)c(Cl)c3)c21 [TAK-285]	> 30 µM (inactive)	> 30 µM (inactive)	> 30 µM (inactive)	> 30 µM (inactive)	> 30 µM (inactive)	> 30 µM (inactive)
CNC(=O)c1cccc(-c2ccc3c(N4CCOC[C@@H]4C)nc(N4CCOC[C@@H]4C)nc3n2)c1 [VISTUSERTIB]	> 30 µM (inactive)	> 30 µM (inactive)	> 30 µM (inactive)	> 30 µM (inactive)	> 30 µM (inactive)	> 30 µM (inactive)
c1cc(OCCN2CCCCC2)cc(-c2n[nH]c3ccc(-c4nc[nH]n4)cc23)c1 [CC-401]	> 30 µM (inactive)	0.285 µM (active)	> 30 µM (inactive)	> 30 µM (inactive)	> 30 µM (inactive)	> 30 µM (inactive)
C=CC(=O)Nc1cc(Nc2nccc(-c3cn(C)c4ccccc34)n2)c(OC)cc1N(C)CCN(C)C [OSIMERTINIB]	> 30 µM (inactive)	> 30 µM (inactive)	> 30 µM (inactive)	> 30 µM (inactive)	> 30 µM (inactive)	> 30 µM (inactive)
COc1cc(Nc2ncc(F)c(Nc3ccc4c(n3)N(COP(=O)(O)O)C(=O)C(C)(C)O4)n2)cc(OC)c1OC [FOSTAMATINIB]	> 30 µM (inactive)	> 30 µM (inactive)	> 30 µM (inactive)	> 30 µM (inactive)	> 30 µM (inactive)	> 30 µM (inactive)
COc1ccc2c(OCc3nnc4ccc(-c5ccccc5)nn34)ccnc2c1 [AMG-208]	> 30 µM (inactive)	> 30 µM (inactive)	> 30 µM (inactive)	> 30 µM (inactive)	> 30 µM (inactive)	> 30 µM (inactive)
CC(C)CC(=O)Nc1[nH]nc2c1CN(C(=O)C1CCN(C)CC1)C2(C)C [PHA-793887]	> 30 µM (inactive)	> 30 µM (inactive)	> 30 µM (inactive)	> 30 µM (inactive)	> 30 µM (inactive)	> 30 µM (inactive)
CC[C@@](C)(Nc1ccnc(-c2c[nH]c3ncccc23)n1)C(=O)NCC(F)(F)F [DECERNOTINIB]	> 30 µM (inactive)	> 30 µM (inactive)	> 30 µM (inactive)	> 30 µM (inactive)	> 30 µM (inactive)	> 30 µM (inactive)
C=CCn1c(=O)c2cnc(Nc3ccc(N4CCN(C)CC4)cc3)nc2n1-c1cccc(C(C)(C)O)n1 [ADAVOSERTIB]	> 30 µM (inactive)	> 30 µM (inactive)	0.837 µM (active)	> 30 µM (inactive)	> 30 µM (inactive)	> 30 µM (inactive)
O=c1[nH]c([C@@H]2CCCN2)nc2c1oc1ccc(Cl)cc12	> 30 µM (inactive)	> 30 µM (inactive)	> 30 µM (inactive)	> 30 µM (inactive)	> 30 µM (inactive)	> 30 µM (inactive)
Cc1c(Cn2c(C)nc3c(C(=O)O)cc(N4CCOCC4)cc32)cccc1C(F)(F)F [GSK-2636771]	> 30 µM (inactive)	> 30 µM (inactive)	> 30 µM (inactive)	> 30 µM (inactive)	> 30 µM (inactive)	> 30 µM (inactive)
Cn1cc(-c2[nH]c3cc(NC(=O)[C@H](N)C4CCCCC4)cc4c3c2C=NNC4=O)cn1	> 30 µM (inactive)	> 30 µM (inactive)	> 30 µM (inactive)	> 30 µM (inactive)	> 30 µM (inactive)	> 30 µM (inactive)
NC(=O)c1ccc(N(C(N)=O)c2c(F)cccc2F)nc1-c1ccc(F)cc1F [VX-702]	> 30 µM (inactive)	> 30 µM (inactive)	> 30 µM (inactive)	> 30 µM (inactive)	> 30 µM (inactive)	> 30 µM (inactive)
COCCN1CCN(Cc2ccc(-c3n[nH]c4c3C(=O)c3c(NC(=O)NN5CCOCC5)cccc3-4)cc2)CC1 [RGB-286638]	> 30 µM (inactive)	> 30 µM (inactive)	> 30 µM (inactive)	> 30 µM (inactive)	> 30 µM (inactive)	> 30 µM (inactive)
CCc1nc(C(N)=O)c(Nc2ccc(N3CCC(N4CCN(C)CC4)CC3)c(OC)c2)nc1NC1CCOCC1 [GILTERITINIB]	> 30 µM (inactive)	> 30 µM (inactive)	2.84 µM (active)	0.51 µM (active)	> 30 µM (inactive)	> 30 µM (inactive)
CCN1CCN(Cc2ccc(Nc3ncc(F)c(-c4cc(F)c5nc(C)n(C(C)C)c5c4)n3)nc2)CC1 [ABEMACICLIB]	> 30 µM (inactive)	> 30 µM (inactive)	> 30 µM (inactive)	> 30 µM (inactive)	> 30 µM (inactive)	> 30 µM (inactive)
COc1cccc(Nc2ncnn3ccc(CN4CC[C@@H](N)[C@H](O)C4)c23)c1 [BMS-690514]	> 30 µM (inactive)	3.64 µM (active)	> 30 µM (inactive)	> 30 µM (inactive)	> 30 µM (inactive)	> 30 µM (inactive)
C=CC(=O)Nc1cccc(Nc2nc(Nc3ccc(N4CCN(C(C)=O)CC4)cc3OC)ncc2C(F)(F)F)c1 [ROCILETINIB]	> 30 µM (inactive)	> 30 µM (inactive)	> 30 µM (inactive)	> 30 µM (inactive)	> 30 µM (inactive)	> 30 µM (inactive)
O=C(NOC[C@H](O)CO)c1ccc(F)c(F)c1Nc1ccc(I)cc1F [MIRDAMETINIB]	> 30 µM (inactive)	> 30 µM (inactive)	> 30 µM (inactive)	> 30 µM (inactive)	> 30 µM (inactive)	> 30 µM (inactive)
O=C(NC[C@H](O)CO)c1ccncc1Nc1ccc(I)cc1F [PIMASERTIB]	> 30 µM (inactive)	> 30 µM (inactive)	> 30 µM (inactive)	> 30 µM (inactive)	> 30 µM (inactive)	> 30 µM (inactive)
Cc1cc(-c2cc(OC(=O)c3ccccc3)ccc2Cl)cc2nnc(Nc3ccc(OCCN4CCCC4)cc3)nc12 [TG100-801]	> 30 µM (inactive)	> 30 µM (inactive)	> 30 µM (inactive)	> 30 µM (inactive)	> 30 µM (inactive)	> 30 µM (inactive)
O=C(Nc1ccc(OC(F)(F)F)cc1)c1sccc1NCc1ccnc2ccccc12 [OSI-930]	> 30 µM (inactive)	> 30 µM (inactive)	> 30 µM (inactive)	> 30 µM (inactive)	> 30 µM (inactive)	> 30 µM (inactive)
